Values quoted from earlier work, collected in US20170281701A1, “Formulation for the Nebulization of Oil Based Substances Suitable for Use with a Vibrating Mesh Nebulizer” (priority 2016, published 2017).

Legend:
[1] = compared with Δ8-THC
[2] = smoked cannabis cigarette, of total available amount
[3] = not given; remark: listed apart in the source
[4] = oral dose of 20 mg in a chocolate cookie

SMILES	permeability through the skin relative to Δ8-THC [1] [fold]	absorption through the rectal route	also measured
C=C(C)[C@@H]1CCC(C)=C[C@H]1c1c(O)cc(CCCCC)cc1O [CBD, cannabidiol]	10	–	–
CCCCCc1cc(OC(=O)CCC(=O)O)c2c(c1)OC(C)(C)[C@@H]1CCC(C)=C[C@@H]21 [Δ^9-THC-hemisuccinate]	–	is absorbed	–
CCCCCc1cc(O)c2c(c1)OC(C)(C)[C@@H]1CCC(C)=C[C@@H]21 [Δ^9-THC, Δ-9-tetrahydrocannabinol]	–	not absorbed	maximum of THC content in a cannabis cigarette absorbed or delivered to the systemic circulation [2]: 25-27%; absorption (description) [3, 4]: slow and unreliable; systemic availability [3, 4]: 4-12%
CCCCCc1cc(O)c2c(c1)OC(C)(C)c1ccc(C)cc1-2 [CBN, cannabinol]	10	–	–
CCCCCc1cc(O)c2c(c1)OC(C)(C)[C@@H]1CCC(C)=C[C@@H]21 [dronabinol]	–	–	administered dose entering the systemic circulation ([3]; orally administered, extensive first-pass metabolism): 10-20%
